{"source": "patent US8993718B2", "about": "“Methods and compositions for detecting and modulating O-glycosylation” (President and Fellows of Harvard College, priority 2007, dated 2015)", "assay_type_in_all_cases": "biochemical", "key": {"[1]": {"tested_on": "ppGalNAcTs", "experiment": "Protease protection assay for ppGalNAcTs (general)", "procedure": "(§1) There are multiple isoforms of the enzyme polypeptide N-acetylgalactosaminyltranferases (ppGalNAcTs). Activity of ppGalNAcTs are illustrated in FIG. 14. Using assay methods as described above, peptide substrates for ppGalNAcTs were prepared and used to assay to identify modulators of ppGalNAcTs activity. Peptide substrates EPGPTEAPK (SEQ ID NO:25) and EDAVTPGPK (SEQ ID NO:26) were prepared (see FIG. 15) and utilized to assay for modulators of the enzymes. Each peptide substrate include a proteinase K cleavage site. The identified compound SEQ ID NO:25 is a general substrate for ppGalNAcTs and identified compound SEQ ID NO:26 is a selective substrate for the enzyme ppGalNAcT1. Assays were run and alterations in the rate and/or amount of cleavage by proteinase K was determined. […] The difference in cleavage permitted use of the assay to identify compounds that inhibit glycosylation of the substrate by ppGalNAcTs. Additional inhibitory compounds identified using the assay include Compound 24 and Compound 27 (see Table 1)."}, "[2]": {"molecular_target": "ppGalNAcT2 (Homo sapiens, UniProt Q10471)", "sequence (Q10471 whole entry, canonical isoform)": "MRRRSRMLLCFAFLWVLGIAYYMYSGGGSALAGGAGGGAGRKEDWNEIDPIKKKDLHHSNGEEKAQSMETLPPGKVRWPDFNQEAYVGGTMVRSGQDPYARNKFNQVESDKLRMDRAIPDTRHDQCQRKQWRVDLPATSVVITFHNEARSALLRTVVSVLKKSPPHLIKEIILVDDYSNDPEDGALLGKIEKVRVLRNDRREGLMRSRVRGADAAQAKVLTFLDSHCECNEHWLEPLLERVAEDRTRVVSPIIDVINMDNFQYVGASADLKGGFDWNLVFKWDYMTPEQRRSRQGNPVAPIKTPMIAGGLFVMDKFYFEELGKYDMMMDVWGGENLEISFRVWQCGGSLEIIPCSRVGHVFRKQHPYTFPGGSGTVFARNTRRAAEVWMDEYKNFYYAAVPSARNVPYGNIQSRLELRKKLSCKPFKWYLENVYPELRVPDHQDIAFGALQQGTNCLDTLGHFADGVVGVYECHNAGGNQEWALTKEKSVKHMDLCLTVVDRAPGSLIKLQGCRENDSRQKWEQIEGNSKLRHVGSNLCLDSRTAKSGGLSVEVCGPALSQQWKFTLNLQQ", "experiment": "Protease protection assay for ppGalNAcT2", "procedure": "as §1\n(§2) It was determined that the assay could also be used to identify isoform selective inhibitors. […] The presence of the inhibitor disrupted crystal growth of the ppGalNAcT2."}, "[3]": {"molecular_target": "T1, ppGalNAcT1 (Homo sapiens, UniProt Q10472)", "T1 sequence (Q10472 1-559)": "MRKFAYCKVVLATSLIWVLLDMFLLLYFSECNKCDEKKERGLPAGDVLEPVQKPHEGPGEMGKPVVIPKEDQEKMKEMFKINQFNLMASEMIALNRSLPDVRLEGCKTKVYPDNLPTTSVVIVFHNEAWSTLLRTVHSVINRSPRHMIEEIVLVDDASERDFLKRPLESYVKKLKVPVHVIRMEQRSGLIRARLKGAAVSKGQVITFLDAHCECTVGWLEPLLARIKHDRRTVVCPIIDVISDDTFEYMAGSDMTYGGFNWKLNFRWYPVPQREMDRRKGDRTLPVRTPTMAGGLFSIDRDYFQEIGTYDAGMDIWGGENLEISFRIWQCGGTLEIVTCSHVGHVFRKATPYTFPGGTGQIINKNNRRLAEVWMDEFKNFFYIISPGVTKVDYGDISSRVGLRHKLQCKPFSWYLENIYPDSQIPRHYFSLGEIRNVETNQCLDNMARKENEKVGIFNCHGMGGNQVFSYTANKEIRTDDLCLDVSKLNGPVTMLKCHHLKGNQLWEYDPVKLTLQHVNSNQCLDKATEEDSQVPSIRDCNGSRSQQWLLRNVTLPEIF", "experiment": "Protease protection assay for ppGalNAcT1", "procedure": "as §1, §2"}, "[4]": {"molecular_target": "T2, O-Linked N-acetylglucosaminyltransferase (OGT) (Homo sapiens, UniProt O15294)", "T2 sequence (O15294 1-1046)": "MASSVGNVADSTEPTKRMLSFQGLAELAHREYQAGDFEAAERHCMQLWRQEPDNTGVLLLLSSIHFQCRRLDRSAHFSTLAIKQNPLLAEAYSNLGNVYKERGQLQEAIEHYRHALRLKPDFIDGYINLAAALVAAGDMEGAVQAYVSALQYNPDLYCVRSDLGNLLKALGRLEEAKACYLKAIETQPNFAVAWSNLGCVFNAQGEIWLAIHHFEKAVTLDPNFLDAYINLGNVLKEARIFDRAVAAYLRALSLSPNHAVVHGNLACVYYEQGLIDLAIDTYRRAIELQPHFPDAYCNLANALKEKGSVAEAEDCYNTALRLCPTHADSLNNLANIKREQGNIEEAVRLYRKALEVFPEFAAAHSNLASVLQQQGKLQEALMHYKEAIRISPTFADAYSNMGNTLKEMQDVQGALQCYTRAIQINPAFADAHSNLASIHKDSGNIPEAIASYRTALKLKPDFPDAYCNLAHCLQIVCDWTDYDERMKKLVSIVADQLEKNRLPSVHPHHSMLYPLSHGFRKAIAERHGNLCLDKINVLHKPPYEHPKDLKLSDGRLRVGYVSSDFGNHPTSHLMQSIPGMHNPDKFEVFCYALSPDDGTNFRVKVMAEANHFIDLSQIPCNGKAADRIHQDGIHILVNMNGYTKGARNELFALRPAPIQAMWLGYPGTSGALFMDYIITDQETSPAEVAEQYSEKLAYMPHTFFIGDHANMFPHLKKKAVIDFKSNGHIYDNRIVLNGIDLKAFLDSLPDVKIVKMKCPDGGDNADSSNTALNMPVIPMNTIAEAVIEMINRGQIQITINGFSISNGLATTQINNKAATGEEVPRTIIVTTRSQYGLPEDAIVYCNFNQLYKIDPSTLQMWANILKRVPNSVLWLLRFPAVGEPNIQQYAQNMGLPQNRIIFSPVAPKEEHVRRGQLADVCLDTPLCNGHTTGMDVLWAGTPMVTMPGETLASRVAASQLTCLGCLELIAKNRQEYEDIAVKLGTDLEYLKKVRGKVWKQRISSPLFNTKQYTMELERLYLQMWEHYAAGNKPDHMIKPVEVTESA", "experiment": "Glycosylation of CK2-derived polypeptide substrates by OGT, quantified by LC/MS", "details": "more soluble variant vs earlier polypeptides", "procedure": "To address the first requirement, a panel of polypeptides was synthesized based on a truncated version of the CKII polypeptide [CKII peptide PGGSTPVSSNAMM (SEQ ID NO:20)]. The polypeptide was modified from the native sequence in several ways. First, a fluorescein was installed on the N-terminus during synthesis. Second, a lysine was added to the C-terminus so that a second dye or quencher could be installed by reaction with the appropriate N-hydroxysuccinimidyl ester. These modifications allowed two different FRET approaches. The first approach required the installation of a coumarin derivative on the polypeptide. The second required installation of a quencher molecule, which measured total fluorescence intensity. (See Examples 2 and 3). Finally, the residues on either side of the glycosylated serine of the truncated CK2 polypeptide were changed to phenylalanine, leucine or arginine to introduce proteolytic cleavage sites for common proteases (such as trypsin, chymotrypsin and thermolysin) that were not present in the native sequence. It was reasoned that cleavage adjacent to the glycosylation site would yield the largest difference in the rate of proteolysis between glycosylated and native polypeptides. This series of polypeptides was synthesized and screened for OGT activity using by LC/MS. Peak integration (measured at 445 nm) was used to quantitative products and reactants and mass spectrometry was used to confirm peak identity. The results are presented in Table 2 and some of the peptides (peptide 4.1, 4.4, and 4.5 top to bottom) are illustrated in FIG. 2.\nAll polypeptides were purchased from Tufts University core facility (Boston, Mass.). The mass of crude product was verified and the polypeptides were labeled under the following conditions: Polypeptide was dissolved in 250 mM NaHCO3 buffer, pH 8.2 at a 5 mM concentration and the appropriate NHS-Ester (0.5 eq) was dissolved in DMSO (a volume of 1/10 of the aqueous buffer was used). The DMSO solution was quickly added to the peptide and the reaction proceeded at room temperature for 30 minutes. This was repeated 2 more times (four more times for polypeptide 4.10). The reaction was monitored by LC/MS. LCMS conditions for polypeptides 4.1-4.8—Agilent Eclipse 5 μm XD8-C8 column, 0→100% CH3CN+0.1% formic acid over 20 minutes. LCMS conditions for polypeptides 4.9-4.10—Agilent Eclipse 5 μm XD8-C8 column, 0→100% CH3CN+0.1% NH4OH over 20 minutes. Each polypeptide was purified by preparative HPLC. Conditions for polypeptides 4.1-4.8 were: —Phenomonex Luna C18 5 μm column, 0→100% CH3CN+0.1% TFA over 40 minutes. Conditions for polypeptides 4.9-4.10 were: —Phenomonex Luna C18 5 μm column, 0→100% CH3CN+0.1% NH4OH over 40 minutes. Products were confirmed by LC/MS. Preparative Glycosylation of Labeled Polypeptides: Purified FRET labeled polypeptides were added (20-50 μM final concentration) to assay buffer (50 mM Tris, 20 mM CaCl2, 0.05% Tween-20, 0.05% NP-40, pH=7.8), 200 μM UDP-GlcNAc, 0.05 units of alkaline phosphatase, and 5 μM OGT. Reactions were monitored using LCMS: conditions for polypeptides 4.1-4.8—Agilent Eclipse 5 μm XD8-C8 column, 10→60% CH3CN+0.1% formic acid over 20 minutes. LCMS conditions for polypeptides 4.9-4.10—Agilent Eclipse 5 μm XD8-C8 column, 10→60% CH3CN+0.1% NH4OH over 20 minutes, and when complete were purified using the same column and conditions. Polypeptides 4.1-4.8 were quantitated by absorption at 492 nm using an extinction coefficient of 86,000 cm^−1M^−1; polypeptide 4.9 was quantitated by absorption at 530 nm using an extinction coefficient of 26,000 cm^−1M^−1; polypeptide 4.10 was quantitated by absorption at 530 nm using an extinction coefficient of 52,000 cm^−1M^−1. Fluorescence Resonance Energy Transfer (FRET)-Peptide Approach #1"}}, "note": "Entries after “also recorded” stand apart in the source; their conditions may differ. Non-standard residues stand in square brackets, D forms with d. Primed or numbered codes have the meaning given here. No end group written: not given here. *: point of attachment. FITC = O=C1OC2(c3ccc(O)cc3Oc3cc(O)ccc32)c2ccc(NC(=S)*)cc21; Aha′ = not defined here"}
{"compound": "O=C1NC(=S)NC(=O)C1=C/C=C\\c1ccco1", "note": "[Compound 26]", "values": [{"measurement": "inhibition of ppGalNAcTs", "setting": "[1]", "result": "inhibitors"}]}
{"compound": "O=C(O)CCCN1C(=O)C(O)=C(C(=O)/C=C\\c2ccccc2)C1c1ccccc1", "note": "(stereo not shown) [Compound 24]", "values": [{"measurement": "inhibition of ppGalNAcT2 (% glycosylation, FIG. 18)", "setting": "[2]", "result": "inhibits"}, {"measurement": "inhibition of ppGalNAcT1 (% glycosylation, FIG. 18)", "setting": "[3]", "result": "inhibits"}, {"measurement": "inhibition of ppGalNAcTs", "setting": "[1]", "result": "inhibitory; also recorded: inhibitors"}]}
{"compound": "O=C(O)CCCCCn1c(SCC(=O)c2ccc(O)c(O)c2)nc2ccsc2c1=O", "note": "[Compound 27]", "values": [{"measurement": "inhibition of ppGalNAcTs", "setting": "[1]", "result": "inhibitory; also recorded: inhibitors"}]}
{"compound": "FITC(Aha)STPVSRANMK(QXL ™ 520)R K(QXL ™ 520) ({FITC}-[Aha′]STPVSRANMK(QXL 520)RK(QXL 520); reading uncertain; also: printed as FITC(Aha)STPVSRANMK(QXL ™ 520)R K(QXL ™ 520)) [Polypeptide 4.10]", "values": [{"measurement": "increase of glycosylation rate", "setting": "[4]", "result": "2-3 fold"}]}
{"compound": "O=C1NC(=O)N(Cc2ccco2)C(=O)/C1=C\\c1ccco1", "note": "[Compound 25]", "values": [{"measurement": "isoform selectivity ppGalNAcT2 vs ppGalNAcT1", "setting": "[2]; FIG. 18B", "result": "more selective inhibitor for ppGalNAcT2 than for ppGalNAcT1; also recorded: more selectively inhibits ppGalNAcT2 than ppGalNAcT1"}]}
